Among the data in ChEMBL document CHEMBL1128812, “Synthesis and porcine pancreatic elastase inhibitory evaluation of 6-(sulfonyl)oxy-and 6-chloropenicillanate sulfone esters and 3-(acyloxy)methyl-6-chloropenam sulfones” (Bioorg Med Chem Lett, 1995) are inhibition values, retold here.

Molecules are shown by their SMILES. Values joined by “and” are separate entries in the source; they are usually repeats but may differ in a detail not shown here. Equal values may be shown once.

For this test, the target named is T1, Chymotrypsin-like elastase family member 2A (Sus scrofa) (UniProt P08419).
T1 sequence (whole entry): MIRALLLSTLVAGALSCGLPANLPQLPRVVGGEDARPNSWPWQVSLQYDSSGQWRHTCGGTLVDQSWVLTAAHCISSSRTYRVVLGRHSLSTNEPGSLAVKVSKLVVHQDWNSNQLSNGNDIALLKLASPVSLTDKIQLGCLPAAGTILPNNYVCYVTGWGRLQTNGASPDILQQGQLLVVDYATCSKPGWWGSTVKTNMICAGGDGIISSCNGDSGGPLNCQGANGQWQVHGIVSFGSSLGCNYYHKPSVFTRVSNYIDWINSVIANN
Description: Compound was tested in vitro for its ability to inhibit Pancreatic elastase catalyzed hydrolysis of substrate with 10 min pre-incubation.

Consider `COC(=O)[C@@H]1N2C(=O)[C@@H](Cl)[C@H]2S(=O)(=O)C1(C)C`, for which the inhibition (commonly the relative decrease from the control value, in per cent) was 44% and 40%.
